“Also recorded” adds a separate entry of the source.
Columns and labels:
[1] = tested on: ovalbumin (OVA); experiment: Anti-OVA antibody quantification day 21 (Example 3); type: in vivo, mouse
[2] = tested on: systemic TNF-a and IL-6; experiment: Systemic cytokines, AddaVax vaccines with CpG or Pam3CSK4 (Example 2); type: in vivo, mouse; conditions: CpG or Pam3CSK4, ovalbumin, one hour
[3] = tested on: ovalbumin; experiment: Anti-ovalbumin antibody titer day 21, AddaVax vaccines (Example 2); type: in vivo, mouse
Text: The inventors next wanted to examine how capsaicin, honokiol and WA would work with other TLR agonists. Additionally, the inventors wanted to compare these inhibitors to the most commonly used anti-inflammatory drugs, ibuprofen and acetaminophen. The inventors formulated the vaccines using AddaVax, an oil-in-water emulsion to ensure solubility of the inhibitors. The inventors used either CpG, a TLR 9 agonist or Pam3CSK4, a TLR 1/2 agonist as the immune adjuvant and ovalbumin as the antigen. The inventors analyzed systemic cytokines one hour post-vaccination. […] On day 21 the inventors analyzed the anti-ovalbumin antibody titer.

[4] = tested on: systemic cytokines; experiment: Plasma cytokine analysis after OVA/CpG/AddaVax vaccination (Example 3); type: in vivo, mouse; conditions: for systemic MCP-1 / systemic IFN-γ: combined with CpG; for systemic IFN-γ: 24 h; for systemic IL-6 vs CpG alone, dose study / systemic TNF-α vs CpG alone, all doses / systemic TNF-α, comparison between doses: honokiol 200, 400, 800 μg, capsaicin 1, 5, 20 μg
[5] = tested on: systemic TNF-α and IL-6; experiment: Systemic cytokines after gp120 vaccination; type: in vivo, mouse; conditions: gp120 antigen, 1 h
Method: To examine how this would translate in vivo, the inventors vaccinated mice with CpG (50 μg), Pam3CSK4 (20 μg) and R848 (50 μg) using gp120 as the antigen.
Mice were anesthetized lightly with isoflurane and injected intramuscularly in the hind leg with 50 uL containing antigen, adjuvant and PBS. […] CpG dose, 50 μg. SN50, 500 TNF-aN, 30 μg. IL-6N, 30 μg.
Blood was collected from mice at specified time points in 0.2 mL heparin coated collection tubes (VWR Scientific). Serum was isolated via centrifugation 2000×g for 5 min. Supernatant was collected and stored at −80° C. until use. Serum was analyzed using BD Cytometric Bead Array Mouse Th1/Th2/Th17 cytokine kit or Mouse Inflammation cytokine kit according to manufacturer's protocol. Briefly, beads containing antibodies for desired cytokines were mixed with 50 μL serum and 50 μL PE detection reagent and incubated for 2 h. Beads were washed and analyzed using BD Accuri C6 flow cytometer. Data was analyzed using BD Accuri C6 software and Graphpad Prism.

[6] = tested on: systemic TNF-a and IL-6; experiment: Systemic cytokines after vaccination with NF-kB inhibitor, CpG and ovalbumin (Example 2); type: in vivo, mouse; conditions: one hour post-vaccination
[7] = tested on: RAW macrophages; experiment: IL-6 expression of RAW macrophages with LPS and NF-kB inhibitors (Example 2)
[8] = tested on: RAW 264.7 macrophages; experiment: RAW macrophage cytokine analysis, IL-6 with LPS (Example 3); type: cell-based, mouse; conditions: for inhibition of IL-6 expression in vitro: capsaicin 200 μM, honokiol 20 μM, WA 400 nM
Text: To begin exploring alternative NF-κB inhibitors, the inventors examined the literature for promising candidates. Due to the strong correlation between NF-KB activation and sepsis, cancer and autoimmune disorders, a large library of NF-κB inhibitors have been identified. The inventors first wanted to analyze the potential of a variety small molecule NF-κB inhibitors to inhibit inflammation in vitro in combination with lipopolysaccharide (LPS), a TLR4 agonist. The inventors chose several common commercially available NF-κB inhibitors and tested them in RAW macrophages. […] To determine if immune potentiation was specific to NFkB or general to all anti-inflammatory molecules, the inventors included the most common, FDA approved anti-inflammatory drugs acetaminophen (10 mM) and ibuprofen (800 μM). The inventors treated RAW macrophages with inhibitors and LPS and assayed the supernatant for IL-6 secretion (FIG. 18A).
The inventors examined the activities of the synthesized compounds in order to understand how the various functional groups affect anti-inflammatory action or adaptive immune response (FIGS. 23, 25). The inventors treated RAW macrophages with honokiol derivatives and LPS and analyzed IL-6 expression. The addition of LPS alone without a honokiol derivative gave high levels of IL-6 expression (6848 pg/mL). The addition of honokiol decreased IL-6 levels to 260 pg/mL, a decrease of 26-fold.
RAW macrophage cytokine analysis: RAW 264.7 macrophages were passaged and plated in a cell culture treated 12-well plate at 0.5×10^6 cells/well in 1 mL DMEM containing 10% FBS. Cells were grown for 2 days. Media was exchanged for 1 mL DMEM containing 10% HIFBS. Inhibitors were added at indicated concentrations and incubated for 45 min. After 45 min, LPS was added at 100 ng/mL and incubated at 37° C. and 5% CO2 for 24 h. Cell supernatant was removed and analyzed using BD Cytometric Bead Array Mouse Inflammation Kit.

[9] = tested on: non-human primate (NHP) primary peripheral blood mononuclear cells (PBMCs); experiment: NHP PBMCs stimulated with LPS with or without SN50; type: cell-based; conditions: 6 h
Method: To understand how this may translate to human vaccinations, the inventors treated THP-1 monocytes with […] LPS with or without SN50. […] Additionally, the inventors examined the effects of SN50 on non-human primate (NHP) primary peripheral blood mononuclear cells (PBMCs). The inventors stimulated NHP PBMCs with SN50 and LPS or LPS alone for 6 h and analyzed the cell supernatant for pro-inflammatory cytokines. […] This implies that SN50 may work similarly in NHP and humans as it does in mice.

[10] = Pain response observed after vaccination; type: in vivo, mouse; conditions: original dose 20 μg
[11] = 100 μg OVA, 50 μg CpG + inhibitor, AddaVax, 1 h
[12] = 100 μg OVA, 50 μg CpG, AddaVax, 1 h
[13] = inhibitor 45 min before 100 ng/mL LPS, 3 h

## CC(=O)Nc1ccc(O)cc1 [acetaminophen]
[1]
  anti-OVA antibody level lower than CpG alone: 2.4 fold
[2]
  systemic IL-6: less effective at decreasing systemic IL-6 levels
[3]
  anti-ovalbumin antibody titer: decreases in antibody titer
[4]; [11]
  decrease of systemic TNF-α vs CpG: 1.8 fold
  systemic IL-6: did not decrease IL-6 expression significantly

## Pam3CSK4
[5]
  systemic TNF-α and IL-6, effect of adding SN50 to the named adjuvant: significant decrease in systemic cytokines

## CC(C)Cc1ccc(C(C)C(=O)O)cc1 (stereo not shown) [ibuprofen]
[1]
  anti-OVA antibody level lower than CpG alone: 3.2 fold
[2]
  systemic IL-6: less effective at decreasing systemic IL-6 levels
[3]
  anti-ovalbumin antibody titer: decreases in antibody titer
[4]; [11]
  decrease of systemic TNF-α vs CpG: 1.4 fold
  systemic IL-6: did not decrease IL-6 expression significantly
[4]; [12]
  systemic TNF-α: 738 pg/mL

## CCOCc1nc2c(N)nc3ccccc3c2n1CC(C)(C)O [R848]
[5]
  systemic TNF-α and IL-6, effect of adding SN50 to the named adjuvant: significant decrease in systemic cytokines

## CC1=C(CO)C(=O)O[C@@H]([C@@H](C)[C@H]2CC[C@H]3[C@@H]4C[C@H]5O[C@]56[C@@H](O)C=CC(=O)[C@]6(C)[C@H]4CC[C@]23C)C1 [WA, Withaferin A]
[6]
  systemic IL-6: about a two-fold decrease in IL-6 levels
  systemic TNF-a: no change in systemic TNF-a levels compared to CpG alone
[2]
  systemic IL-6: less effective at decreasing systemic IL-6 levels
[4]; [11]
  decrease of systemic TNF-α vs CpG: 1.8 fold
  systemic IL-6: did not decrease IL-6 expression significantly
[7]; [13]
  IL-6 expression: decreases in proinflammatory cytokine activity without entirely blocking expression; also recorded: completely inhibited IL-6 expression
[8]
  inhibition of IL-6 expression in vitro: most effective at inhibiting IL-6 expression in vitro

## COc1cc(O)cc(O)c1C(=O)/C=C/c1ccccc1 [cardamonin, Cardamonin]
[6]
  systemic TNF-a: no change in systemic TNF-a levels compared to CpG alone
[7]; [13]
  IL-6 expression: completely inhibited IL-6 expression
[7]; inhibitor 45 min before 100 ng/mL LPS, 3 h, listed as Cardamonin
  IL-6 expression: complete reduction of IL-6 to background levels

## O=c1cc(-c2ccc(O)c(O)c2)oc2cc(O)cc(O)c12 [luteolin]
[7]; [13]
  IL-6 expression: decreases in proinflammatory cytokine activity without entirely blocking expression

## C=CCc1ccc(O)c(-c2ccc(O)c(CC=C)c2)c1 [honokiol]
[1]; honokiol 200, 400, 800 μg
  anti-OVA antibodies vs CpG alone, all doses: all doses of honokiol increased levels of anti-OVA antibodies compared to CpG alone
  dose with the highest anti-OVA antibody level: 400 µg
[6]
  systemic IL-6: about a two-fold decrease in IL-6 levels
  systemic TNF-a: reduced the TNF-a levels by two-fold
[2]
  decrease in systemic IL-6: 4 fold
[4]; [11]
  decrease of systemic TNF-α vs CpG: 2.3 fold
  reduction of systemic IL-6 vs CpG: 3.5 fold
[4]; [12]
  systemic IL-6: 266 pg/mL
[4]
  systemic MCP-1: slightly elevated MCP-1 levels
  systemic IFN-γ: increased IFN-γ levels at 24 h compared to CpG alone
[4]; 1 h
  systemic IL-6 vs CpG alone, dose study: only decreased with 400 μg and 800 μg honokiol and 20 μg capsaicin
  systemic TNF-α vs CpG alone, all doses: significant decrease in TNF-α expression compared to CpG alone
  systemic TNF-α, comparison between doses: no significant difference between the different doses
[7]; [13]
  IL-6 expression: decreases in proinflammatory cytokine activity without entirely blocking expression; also recorded: reduced levels of IL-6
[8]
  inhibition of IL-6 expression in vitro: most effective at inhibiting IL-6 expression in vitro
[8]; honokiol derivative study
  IL-6 expression: 260 pg/mL
  decrease of IL-6 vs LPS alone: 26 fold

## lipopolysaccharide [LPS]
[9]
  TNF-α and IL-6 in the cell supernatant: high levels of TNF-α and IL-6
[7]; 100 ng/mL LPS, 3 h post-activation
  IL-6 expression: 362 pg/mL
[8]; honokiol derivative study
  IL-6 expression: 6848 pg/mL

## CC(/C=C/C(=O)NO)=C\[C@@H](C)C(=O)c1ccc(N(C)C)cc1 [TSA]
[7]; [13]
  IL-6 expression: complete reduction of IL-6 to background levels

## COc1cc(CNC(=O)CCCCC=CC(C)C)ccc1O [capsaicin, 8-methyl-N-vanillyl-6-nonenamide]
[1]; 1 μg and 5 μg
  anti-OVA antibodies in the serum vs CpG alone: did not change level of anti-OVA antibodies in the serum compared to CpG alone
[1]; 20 μg
  anti-OVA antibodies in the serum vs CpG alone: significantly increased serum levels
[6]
  systemic IL-6: IL-6 levels consistent with PBS injection
  systemic TNF-a: returning the systemic TNF-a levels to background
[2]
  systemic IL-6: decreased to levels consistent with PBS
  systemic TNF-a: comparable to PBS alone
[10]
  pain response: pain response was observed
[4]; [11]
  decrease of systemic TNF-α vs CpG: 28 fold
  reduction of systemic IL-6 vs CpG: 20 fold
[4]; [12]
  systemic IL-6: 47.4 pg/mL
[4]
  systemic MCP-1: slightly elevated MCP-1 levels
  systemic IFN-γ: increased IFN-γ levels at 24 h compared to CpG alone
[4]; 1 h
  systemic IL-6 vs CpG alone, dose study: only decreased with 400 μg and 800 μg honokiol and 20 μg capsaicin
  systemic TNF-α vs CpG alone, all doses: decreased TNF-α levels significantly across all doses compared to CpG alone
  systemic TNF-α, comparison between doses: Doses of 5 μg and 20 μg decreased levels of TNF-α significantly more than 1 μg
[7]; [13]
  IL-6 expression: reduced levels of IL-6
[8]
  inhibition of IL-6 expression in vitro: most effective at inhibiting IL-6 expression in vitro

## Oc1ccc(C=Cc2cc(O)cc(O)c2)cc1 [resveratrol]
[7]; [13]
  IL-6 expression: decreases in proinflammatory cytokine activity without entirely blocking expression

## COc1cc(/C=C/C(=O)CC(=O)/C=C/c2ccc(O)c(OC)c2)ccc1O [curcumin]
[6]
  systemic IL-6: did not significantly alter the IL-6 levels
  systemic TNF-a: increasing the average expression levels
[7]; [13]
  IL-6 expression: did not demonstrate a change in IL-6 activity in vitro

## O=C(/C=C/c1ccc(O)c(O)c1)OCCc1ccccc1 [CAPE, Caffeic acid phenethyl ester]
[6]
  systemic IL-6: about a two-fold decrease in IL-6 levels
  systemic TNF-a: no change in systemic TNF-a levels compared to CpG alone
[7]; [13]
  IL-6 expression: complete reduction of IL-6 to background levels; also recorded: completely inhibited IL-6 expression

## COc1cc(O)c2c(c1)/C=C/C[C@H](O)[C@H](O)C(=O)/C=C\C[C@H](C)OC2=O [5-z-o, 5Z-7-Oxozeaenol]
[7]; [13]
  IL-6 expression: complete reduction of IL-6 to background levels; also recorded: completely inhibited IL-6 expression
